The subject of data set [1] is Human alphaherpesvirus 1. Nature of the data set: Antiviral activity against Human herpesvirus 1 infected African green monkey Vero cells after 66 hr by viral plaque reduction assay. The data set is classed as functional. The arrangement: concentration or dose not given beside the values. For orientation: In a plaque reduction assay, fewer plaques than in the control indicate reduced infectivity or spread.

Data set [2] relates to Vero. Kind of data set: Cytotoxicity against Chlorocebus aethiops (African green monkey) Vero cells after 24 hr. To be noted: chlorocebus sabaeus. The data set is classed as cell-based.

Active and inactive are the calls of the source. The rule behind the calls is not given here.

`COc1ccc(OC)c(C(=O)/C=C/c2c(C)nn(-c3ccccc3)c2-c2ccccc2)c1` came in with an Activity in data set [1] of 17%.
The molecule `Cc1nn(-c2ccccc2)c(-c2ccccc2)c1C1CC(c2ccc(N)cc2)=NN1` (centres undefined) returned an Activity in data set [1] of 10%.
As to `Cc1nn(-c2ccccc2)c(-c2ccccc2)c1C1CC(c2ccc(Br)cc2)=NN1c1ccccc1` (centres undefined), in data set [2], the Activity entry is recorded as “Toxic”. In addition, the outcome in data set [1] was inactive.
Take `COc1ccc(C(=O)/C=C/c2c(C)nn(-c3ccccc3)c2-c2ccccc2)cc1`: the Activity result in data set [2] is listed as “Toxic”. Also, the result in data set [1] was inactive.
With `Cc1nn(-c2ccccc2)c(-c2ccccc2)c1/C=C/C(=O)c1ccc(Br)cc1`, the Activity in data set [1] turned out to be 22%.
In data set [1], `Cc1ccc(C2=NOC(c3c(C)nn(-c4ccccc4)c3-c3ccccc3)C2)cc1` (centres undefined) showed an Activity of 53%.
As to `COc1ccc(C2=NOC(c3c(C)nn(-c4ccccc4)c3-c3ccccc3)C2)cc1` (centres undefined), the Activity result in data set [2] is reported as “Toxic”. Further, in data set [1], the outcome was inactive.
In data set [1], `CSc1cccc(Nc2nc(-c3ccc(C)cc3)cc(-c3c(C)nn(-c4ccccc4)c3-c3ccccc3)n2)c1` registered an Activity of 52%.
Same read-out and setting: the value for `Cc1nn(-c2ccccc2)c(-c2ccccc2)c1C1CC(c2ccc(N)cc2)=NO1` (centres undefined) was 10%.
Still for that read-out and setting: under `Nc1nc2c(ncn2COCCO)c(=O)[nH]1` [ACYCLOVIR] stands 100%.
Regarding `Cc1nn(-c2ccccc2)c(-c2ccccc2)c1/C=C/C(=O)c1ccc(N)cc1`, the Activity entry in data set [2] was “Toxic”. The result in data set [1] was inactive.
For `COc1ccc(O)c(C2=NOC(c3c(C)nn(-c4ccccc4)c3-c3ccccc3)C2)c1` (centres undefined), in that order: “Toxic” and “inactive”.
As to `Cc1nn(-c2ccccc2)c(-c2ccccc2)c1-c1cc(-c2ccc(Br)cc2)[nH]c(=O)c1C#N`, in data set [1], the Activity worked out at 52%.
Consider `COc1ccc(C2=NN(c3ccccc3)C(c3c(C)nn(-c4ccccc4)c3-c3ccccc3)C2)cc1` (centres undefined), for which the Activity result in data set [2] is “Toxic”. In data set [1], the result was inactive.
`Cc1nn(-c2ccccc2)c(-c2ccccc2)c1/C=C/C(=O)c1cccc(N)c1`: the Activity in data set [1] turned out to be 10%.
Same read-out and setting: the value for `Cc1nn(-c2ccccc2)c(-c2ccccc2)c1-c1cc(-c2ccc(Br)cc2)nc2nc(/C=C/C(=O)O)[nH]c(=O)c12` was 10%; that for `Cc1nn(-c2ccccc2)c(-c2ccccc2)c1-c1cc(-c2ccc(Br)cc2)nc(N2C(=O)c3ccccc3C2=O)c1C#N` was 22%; that for `Cc1ccc(C(=O)/C=C/c2c(C)nn(-c3ccccc3)c2-c2ccccc2)cc1` was 10%.
The same measure, in the same setting: under `Cc1nn(-c2ccccc2)c(-c2ccccc2)c1-c1cc(-c2ccc(Br)cc2)nc(N)c1C#N` stands 51%.
For `Cc1ccc(C2=NN(c3ccccc3)C(c3c(C)nn(-c4ccccc4)c3-c3ccccc3)C2)cc1` (centres undefined), the Activity result in data set [2] is on record as “Toxic”. Also, the outcome in data set [1] was inactive.
For `COc1ccc(OC)c(C2=NN(c3ccccc3)C(c3c(C)nn(-c4ccccc4)c3-c3ccccc3)C2)c1` (centres undefined), in that order: “Toxic” and “inactive”.
Regarding `Cc1ccc(C2=NNC(c3c(C)nn(-c4ccccc4)c3-c3ccccc3)C2)cc1` (centres undefined), the Activity in data set [1] is given as 22%.
Same read-out and setting: the value for `Cc1nn(-c2ccccc2)c(-c2ccccc2)c1C1CC(c2cccc(N)c2)=NN1` (centres undefined) was 15%.
For the molecule `Cc1nn(-c2ccccc2)c(-c2ccccc2)c1C1CC(c2ccc(N)cc2)=NN1c1ccccc1` (centres undefined), the Activity result in data set [2] was “Toxic”. Further, the result in data set [1] was inactive.
Regarding `COc1ccc(C2=NNC(c3c(C)nn(-c4ccccc4)c3-c3ccccc3)C2)cc1` (centres undefined), the Activity in data set [1] stood at 22%.
Same read-out and setting: the value for `Cc1nn(-c2ccccc2)c(-c2ccccc2)c1C1CC(c2ccc(Br)cc2)=NO1` (centres undefined) was 10%; that for `Cc1nn(-c2ccccc2)c(-c2ccccc2)c1C1CC(c2ccc(Br)cc2)=NN1` (centres undefined) was 18%; that for `Cc1nn(-c2ccccc2)c(-c2ccccc2)c1C1CC(c2cccc(N)c2)=NN1c1ccccc1` (centres undefined) was 11%.
With `Cc1nn(-c2ccccc2)c(-c2ccccc2)c1C1CC(c2cccc(N)c2)=NO1` (centres undefined), in data set [1], the Activity was found to be 22%.
The same measure, in the same setting: the value for `COc1ccc(OC)c(C2=NNC(c3c(C)nn(-c4ccccc4)c3-c3ccccc3)C2)c1` (centres undefined) was 22%.

Values taken from ChEMBL document CHEMBL3045049, “Synthesis and antiviral activity of new 3-methyl-1,5-diphenyl-1H-pyrazole derivatives” (Med Chem Res, 2012).
